Results as given in patent publication US20250057822A1, “PSYCHO[…] TREATING HEARING-RELATED DISORDERS” (THE REGENTS OF THE UNIVERSITY OF CALIFORNIA, priority 2021, published 2025).

Columns and labels:
[1] = test system: inner hair cell ribbon synapses (organ of Corti); experiment: Inner hair cell ribbon synapse density 24 h after psilocin treatment; format: in vivo, mice; details: 1 mg/kg, 24 h after treatment, mean±SEM
Method: C57/B6 female mice, aged 8-weeks-old were treated with psilocin (1 mg/kg) (n=3) and Vehicle (0.9% saline) (n=2). […] Synapse density increase was not significant in the 8 kHz region (Vehicle: 16.50±3.826, psilocin: 17.79±3.826, P=0.5554). For each animal, 17-22 inner hair cells were quantified per frequency (8 kHz and 16 kHz regions of the organ of Corti). Data are presented as mean±SEM.*p<0.05.
8-week old C57/B6 mice were injected with 1 mg/kg psilocin or vehicle control (0).9% saline). 24 h later, mice were euthanized then inner ear tissues were collected for immunofluorescence. Isolated cochlea were punched into oval and round windows using a syringe needle and rinsed/fixed with 4% paraformaldehyde in 1×cold PBS. Then, cochlea were further fixed in 4% paraformaldehyde in 1×cold PBS for additional 2 hours at 4C0. Following fixation, samples were rinsed 3×20 min in PBS and dissected under a stereomicroscope to the three turns: apical, middle and basal. Tissues were permeabilized in PBS+0.25% Triton X-100 solution for 10 min at room temperature on a rocking platform; blocked with 10% goat serum and 25 mM glycine for 1 h at RT. […]

C57/B6 female mice = experiment: Auditory brainstem response (ABR) assay, wave I amplitude; format: in vivo; details: 1 mg/kg, 24 h post-treatment vs baseline (5-6 days pre-treatment), p<0.01, n=3
Method: The ABR amplitudes were analyzed at baseline (5-6 days pre-treatment) and 24 h post-treatment of vehicle (FIG. 2A and FIG. 2B) or 1 mg/kg of the psychoplastogen psilocin (FIG. 2C and FIG. 2D) at 8 and 16 kHz. Data are presented as mean±SEM. […] N=3 8-week old C57/B6 female mice per condition.
Auditory brainstem responses (ABRs) were recorded at baseline (5-6 days prior to treatment) and 24 h post treatment with psilocin (1 mg/kg). Mice were anesthetized via i.p. injections of ketamine (90 mg/kg) and xylazine (20 mg/kg). Subcutaneous electrodes were placed behind the right pinna (inverting) and vertex (active). A ground electrode was placed in the left leg of the mouse. Stimuli were 5-ms tone pips (2 ms cos2 rise-fall) delivered at 21/s with alternating stimulus polarity. Recorded electrical responses were filtered (300 Hz to 3 kHz) and averaged using BioSig software (TDT). The sound intensity level was decreased in 5 dB increments from 90 dB SPL-20 dB SPL. At each sound level 512 responses were averaged.
Wave I amplitudes were measured from the estimated baseline prior to the response to the peak of wave I in μV. ABR wave I amplitudes were analyzed at baseline (5-6 days pre-treatment) and 24 h post-treatment of psilocin (1 mg/kg). Data analyses and statistics were performed using Prism version 9.4 (GraphPad) and presented as mean±SEM. […]

CN(C)CCc1c[nH]c2cccc(O)c12 [psilocin]
inner hair cell ribbon synapse density ([1]; 8 kHz region, not significant vs vehicle 16.50±3.826, P=0.5554): 17.79±3.826 | inner hair cell ribbon synapse density ([1]; 16 kHz region, significant vs vehicle 16±3.826, P=0.0169): 23.27±3.826 | ABR wave I amplitude, change from baseline (C57/B6 female mice; 8 kHz): significantly increased | ABR wave I amplitude, change from baseline (C57/B6 female mice; 16 kHz): significantly increased
